The structures appear in SMILES notation. Values after ≈ are worked out from the molar mass of the structure shown.

We go through 20 compounds from US20050096278A1, “Antibacterial agents” (priority 2003, published 2005).

The test system of one series is E. faecalis MGH-2. Nature of the series: Antibacterial assay (standard microtitration), MIC. The series is classed as cell-based. Conditions: Enterococcus faecalis, MGH2; Gram Positive Bacteria; Table 1B; read-out: Minimum Inhibitory Concentrations, E. faecalis MGH-2. The procedure: (§1) Test A—Antibacterial Assays
(§2) The compounds of the present invention were tested against an assortment of Gram-negative and Gram-positive organisms using standard microtitration techniques (Cohen et. al., Antimicrob., 1985;28:766; Heifetz, et. al., Antimicrob., 1974;6:124). The results of the evaluation are shown in Tables 1A and B. In the tables, “—” means no data.

Another series has as its system S pyogenes C203. In words: Antibacterial assay (standard microtitration), MIC. Type of series: cell-based. Conditions: Gram Positive Bacteria; Table 1B; read-out: Minimum Inhibitory Concentrations, S pyogenes C203. The procedure: as §1, §2
A further series relates to S. aureus UC-76. In words: Antibacterial assay (standard microtitration), MIC. The series is classed as cell-based. The following applies: Staphylococcus aureus, UC76, Gram Positive Bacteria; Table 1B; read-out: Minimum Inhibitory Concentrations, S. aureus UC-76. The protocol:
as §1, §2

For another series, the system named is E. coli MC4100. Nature of the series: Antibacterial assay (standard microtitration), MIC. Conditions: Gram Negative Bacteria, Table 1A; for MIC: Escherichia coli, MC4100, read-out: Minimum Inhibitory Concentrations, E. coli MC4100. The series is classed as cell-based. The procedure: as §1, §2
The test system of the next series is H. influenzae HI-3542. Nature of the series: Antibacterial assay (standard microtitration), MIC. Type of series: cell-based. The following applies: Gram Negative Bacteria, Table 1A; for MIC: Haemophilus influenzae, HI3542, read-out: Minimum Inhibitory Concentrations, H. influenzae HI-3542. The procedure:
as §1, §2

For another series, the system named is M. catarrhalis BC-3531. In words: Antibacterial assay (standard microtitration), MIC. The following applies: Moraxella catarrhalis, BC3531; Gram Negative Bacteria; Table 1A; read-out: Minimum Inhibitory Concentrations, M. catarrhalis BC-3531. Type of series: cell-based. The protocol: as §1, §2

Turning to `COc1c(N2CCCC(O)C2)c(F)cc2c(=O)c(C(=O)O)cn(C3CC3)c12` (stereo not drawn) [drawing 358], the values for the MIC in the series on E. faecalis MGH-2, with S pyogenes C203 and in the series on S. aureus UC-76 were 0.002 µg/mL (≈ 0.00531 µM), 0.125 µg/mL (≈ 0.332 µM) and 0.03 µg/mL (≈ 0.0797 µM), respectively.
The matching figures for `COc1c(N2CCC(O)(CO)CC2)c(F)cc2c(=O)c(C(=O)O)cn(C3CC3)c12` [drawing 347]: 1 µg/mL (≈ 2.46 µM), 1 µg/mL (≈ 2.46 µM) and 0.015 µg/mL (≈ 0.0369 µM).
On the same counts, the results for `COc1c(N2CCC(CO)CC2)c(F)cc2c(=O)c(C(=O)O)cn(C3CC3)c12` [drawing 348] are 0.125 µg/mL (≈ 0.32 µM), 0.125 µg/mL (≈ 0.32 µM) and 0.015 µg/mL (≈ 0.0384 µM).
As to `COc1c(N2CCC(O)(c3ccccc3)CC2)c(F)cc2c(=O)c(C(=O)O)cn(C3CC3)c12` [drawing 333], the MIC with E. coli MC4100 came to 32 µg/mL (≈ 70.7 µM); with H. influenzae HI-3542 it was 2 µg/mL (≈ 4.42 µM); in the series with M. catarrhalis BC-3531, 1 µg/mL (≈ 2.21 µM).
The matching figures for `COc1c(N2CCCC(CO)C2)c(F)cc2c(=O)c(C(=O)O)cn(C3CC3)c12` (stereo not drawn) [drawing 335]: 0.25 µg/mL (≈ 0.64 µM), 0.03 µg/mL (≈ 0.0768 µM) and 0.06 µg/mL (≈ 0.154 µM).
The matching figures for `COc1c(N2CCC3(CC2)OCCO3)c(F)cc2c(=O)c(C(=O)O)cn(C3CC3)c12` [drawing 325]: 0.5 µg/mL (≈ 1.19 µM), 0.06 µg/mL (≈ 0.143 µM) and 0.06 µg/mL (≈ 0.143 µM).
For the compound `COc1c(N2CCC(O)C(C)C2)c(F)cc2c(=O)c(C(=O)O)cn(C3CC3)c12` (stereo not drawn) [drawing 337], in the series on E. coli MC4100, the “Minimum Inhibitory Concentrations, E. coli MC4100” value is 0.25 µg/mL. Also, the “Minimum Inhibitory Concentrations, H. influenzae HI-3542” value in the series with H. influenzae HI-3542 is 0.03 µg/mL.
Consider `COc1c(N2CCC(O)C(O)C2)c(F)cc2c(=O)c(C(=O)O)cn(C3CC3)c12` (stereo not drawn) [drawing 338], for which the MIC came out at 0.25 µg/mL (≈ 0.637 µM) in the series with E. coli MC4100, 0.008 µg/mL (≈ 0.0204 µM) with H. influenzae HI-3542 and 0.125 µg/mL (≈ 0.319 µM) with M. catarrhalis BC-3531.
`COc1c(N2CCC(O)C(C)(C)C2)c(F)cc2c(=O)c(C(=O)O)cn(C3CC3)c12` (stereo not drawn) [drawing 331]: the results for the MIC with E. coli MC4100, in the series with H. influenzae HI-3542 and in the series on M. catarrhalis BC-3531 were 0.25 µg/mL (≈ 0.618 µM), 0.125 µg/mL (≈ 0.309 µM) and 0.125 µg/mL (≈ 0.309 µM), respectively.
As to `COc1c(N2CCC(C(O)CCO)CC2)c(F)cc2c(=O)c(C(=O)O)cn(C3CC3)c12` (stereo not drawn), the melting point (commonly the temperature, or range, at which the solid turns liquid) lay in the range of 210 to 214 °C.
For `COc1c(N2CCC(CCO)CC2)c(F)cc2c(=O)c(C(=O)O)cn(C3CC3)c12`, the results for the MIC in the series with E. faecalis MGH-2, with S pyogenes C203 and with S. aureus UC-76 were 0.125 µg/mL (≈ 0.309 µM), 0.25 µg/mL (≈ 0.618 µM) and 0.015 µg/mL (≈ 0.0371 µM), respectively.
For the compound `Cc1c(N2CCC(CCO)CC2)c(F)cc2c(=O)c(C(=O)O)cn(C3CC3)c12` [drawing 345], the results for the MIC with E. faecalis MGH-2, in the series on S pyogenes C203 and in the series with S. aureus UC-76 were 0.03 µg/mL (≈ 0.0772 µM), 0.06 µg/mL (≈ 0.154 µM) and 0.004 µg/mL (≈ 0.0103 µM), respectively.
The matching figures for `COc1c(N2CCC(O)C(O)C2)c(F)cc2c(=O)c(C(=O)O)cn(C3CC3)c12` (stereo not drawn) [drawing 357]: 0.125 µg/mL (≈ 0.319 µM), 0.125 µg/mL (≈ 0.319 µM) and 0.008 µg/mL (≈ 0.0204 µM).
Turning to `COc1c(N2CCC(O)(CO)CC2)c(F)cc2c(=O)c(C(=O)O)cn(C3CC3)c12` [drawing 328], the results for the MIC in the series on E. coli MC4100, in the series on H. influenzae HI-3542 and with M. catarrhalis BC-3531 were 0.25 µg/mL (≈ 0.615 µM), 0.015 µg/mL (≈ 0.0369 µM) and 0.125 µg/mL (≈ 0.308 µM), respectively.
Take `Cc1c(N2CCCC(C)(O)C2)c(F)cc2c(=O)c(C(=O)O)cn(C3CC3)c12` (stereo not drawn) [drawing 360]: the values for the MIC in the series with E. faecalis MGH-2 and with S pyogenes C203 were 0.5 µg/mL (≈ 1.34 µM) and 0.03 µg/mL (≈ 0.0801 µM), respectively.
For `COc1c(N2CCC(C(O)CO)CC2)c(F)cc2c(=O)c(C(=O)O)cn(C3CC3)c12` (stereo not drawn) [drawing 346], the results for the MIC in the series on E. faecalis MGH-2, with S pyogenes C203 and with S. aureus UC-76 were 0.25 µg/mL (≈ 0.595 µM), 0.25 µg/mL (≈ 0.595 µM) and 0.015 µg/mL (≈ 0.0357 µM), respectively.
In the case of `Cc1c(N2CCCC(O)C2)c(F)cc2c(=O)c(C(=O)O)cn(C3CC3)c12` (stereo not drawn) [drawing 340], the MIC came out at 0.125 µg/mL (≈ 0.347 µM) in the series on E. coli MC4100, 0.015 µg/mL (≈ 0.0416 µM) in the series on H. influenzae HI-3542 and 0.03 µg/mL (≈ 0.0832 µM) in the series on M. catarrhalis BC-3531.
The matching figures for `COc1c(N2CCC(O)C(CO)C2)c(F)cc2c(=O)c(C(=O)O)cn(C3CC3)c12` (stereo not drawn) [drawing 324]: 0.25 µg/mL (≈ 0.615 µM), 0.015 µg/mL (≈ 0.0369 µM) and 0.125 µg/mL (≈ 0.308 µM).
For the compound `COc1c(N2CCC(O)C(CO)C2)c(F)cc2c(=O)c(C(=O)O)cn(C3CC3)c12` (stereo not drawn), the melting point was in the range of 115 to 125 °C.
As for `COc1c(N2CCCC(C(O)CO)C2)c(F)cc2c(=O)c(C(=O)O)cn(C3CC3)c12` (stereo not drawn) [drawing 334], the MIC is 1 µg/mL (≈ 2.38 µM) with E. coli MC4100, 0.125 µg/mL (≈ 0.297 µM) in the series on H. influenzae HI-3542 and 0.25 µg/mL (≈ 0.595 µM) in the series on M. catarrhalis BC-3531.
